According to ChEMBL document CHEMBL2069292, “Dammarane glycosides from the root of Machilus yaoshansis” (J Nat Prod, 2012):
The source made the active and inactive calls.

Columns and labels:
Bel-7402 = assay: Cytotoxicity against human Bel7402 cells at 10 uM after 96 hrs by MTT assay; assay type: functional, cell-based
HCT-8 = assay: Cytotoxicity against human HCT8 cells at 10 uM after 96 hrs by MTT assay; assay type: functional, cell-based
A549 = assay: Cytotoxicity against human A549 cells at 10 uM after 96 hrs by MTT assay; assay type: functional, cell-based
A2780 = assay: Cytotoxicity against human A2780 cells at 10 uM after 96 hrs by MTT assay; assay type: functional, cell-based
[1] = biological target: T1, Tyrosine-protein phosphatase non-receptor type 1 (Homo sapiens) (UniProt P18031); assay: Inhibition of human PTP1B at 10 uM
T1 sequence (whole entry): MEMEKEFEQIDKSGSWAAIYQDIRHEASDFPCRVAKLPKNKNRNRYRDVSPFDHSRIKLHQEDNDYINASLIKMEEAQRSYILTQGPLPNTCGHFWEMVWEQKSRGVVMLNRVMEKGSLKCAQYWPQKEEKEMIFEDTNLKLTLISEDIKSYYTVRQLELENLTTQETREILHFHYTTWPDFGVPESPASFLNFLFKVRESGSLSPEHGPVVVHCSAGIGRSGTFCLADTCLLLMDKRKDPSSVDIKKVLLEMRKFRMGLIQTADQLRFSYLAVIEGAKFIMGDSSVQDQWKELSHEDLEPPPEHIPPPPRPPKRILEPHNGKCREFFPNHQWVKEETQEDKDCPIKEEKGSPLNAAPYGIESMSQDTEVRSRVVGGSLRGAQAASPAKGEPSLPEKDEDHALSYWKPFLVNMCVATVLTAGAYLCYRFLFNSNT

BGC-823 = assay: Cytotoxicity against human BGC823 cells at 10 uM after 96 hrs by MTT assay; assay type: functional, cell-based
[2] = system: Peritoneal macrophage cell; assay: Inhibition of LPS-induced TNFalpha secretion in C57BL/6J mouse peritoneal macrophages at 10 uM after 24 hrs; assay type: functional, cell-based

CC(C)=CCC[C@@](O)(CO[C@@H]1O[C@H](CO[C@@H]2O[C@H](CO)[C@@H](O)[C@H](O)[C@H]2O)[C@@H](O)[C@H](O)[C@H]1O)[C@H]1CC[C@]2(C)[C@@H]1CC[C@@H]1[C@@]3(C)CC[C@H](O[C@@H]4O[C@H](CO)[C@@H](O)[C@H](O[C@@H]5OC[C@@H](O)[C@H](O)[C@H]5O)[C@H]4O[C@@H]4O[C@@H](C)[C@H](O)[C@@H](O)[C@H]4O)C(C)(C)[C@@H]3CC[C@]12C
inactive: Activity (Bel-7402) | Activity (HCT-8) | Activity (A549) | Activity (A2780) | inhibition [1] | Activity (BGC-823) | inhibition [2]

CC(C)=C[C@H]1C[C@](O)([C@H]2CC[C@]3(C)[C@@H]2CC[C@@H]2[C@@]4(C)CC[C@H](O[C@@H]5OC[C@H](O)[C@H](O[C@@H]6OC[C@@H](O)[C@H](O)[C@H]6O)[C@H]5O[C@@H]5O[C@@H](C)[C@H](O)[C@@H](O)[C@H]5O)C(C)(C)[C@@H]4CC[C@]23C)C(=O)O1
inactive: Activity (Bel-7402) | Activity (HCT-8) | Activity (A549) | Activity (A2780) | inhibition [1] | Activity (BGC-823) | inhibition [2]

CC(C)=CCC[C@@](O)(CO)[C@H]1CC[C@]2(C)[C@@H]1CC[C@@H]1[C@@]3(C=O)CC[C@H](O[C@@H]4OC[C@H](O)[C@H](O[C@@H]5OC[C@@H](O)[C@H](O)[C@H]5O)[C@H]4O)C(C)(C)[C@@H]3CC[C@]12C
inactive: Activity (Bel-7402) | Activity (HCT-8) | Activity (A549) | Activity (A2780) | inhibition [1] | Activity (BGC-823) | inhibition [2]

CC(C)=CCC[C@@](O)(CO)[C@H]1CC[C@]2(C)[C@@H]1CC[C@@H]1[C@@]3(C)CC[C@H](O[C@@H]4OC[C@H](O)[C@H](O[C@@H]5OC[C@@H](O)[C@H](O)[C@H]5O)[C@H]4O[C@@H]4O[C@@H](C)[C@H](O)[C@@H](O)[C@H]4O)C(C)(C)[C@@H]3CC[C@]12C
inactive: Activity (Bel-7402) | Activity (HCT-8) | Activity (A549) | Activity (A2780) | inhibition [1] | Activity (BGC-823) | inhibition [2]

CC(C)=CCC[C@@](O)(CO[C@@H]1O[C@H](CO)[C@@H](O)[C@H](O)[C@H]1O)[C@H]1CC[C@]2(C)[C@@H]1CC[C@@H]1[C@@]3(C)CC[C@H](O[C@@H]4OC[C@H](O)[C@H](O[C@@H]5OC[C@@H](O)[C@H](O)[C@H]5O)[C@H]4O[C@@H]4O[C@@H](C)[C@H](O)[C@@H](O)[C@H]4O)C(C)(C)[C@@H]3CC[C@]12C
inactive: Activity (Bel-7402) | Activity (HCT-8) | Activity (A549) | Activity (A2780) | inhibition [1] | Activity (BGC-823) | inhibition [2]

CC(C)=C[C@@H]1C[C@](O)([C@H]2CC[C@]3(C)[C@@H]2CC[C@@H]2[C@@]4(C)CC[C@H](O[C@@H]5OC[C@H](O)[C@H](O[C@@H]6OC[C@@H](O)[C@H](O)[C@H]6O)[C@H]5O[C@@H]5O[C@@H](C)[C@H](O)[C@@H](O)[C@H]5O)C(C)(C)[C@@H]4CC[C@]23C)C(=O)O1
inactive: Activity (Bel-7402) | Activity (HCT-8) | Activity (A549) | Activity (A2780) | inhibition [1] | Activity (BGC-823) | inhibition [2]

CC(C)=C[C@@H]1C[C@](O)([C@H]2CC[C@]3(C)[C@@H]2CC[C@@H]2[C@@]4(C)CC[C@H](O[C@@H]5O[C@H](CO)[C@@H](O)[C@H](O[C@@H]6OC[C@@H](O)[C@H](O)[C@H]6O)[C@H]5O)C(C)(C)[C@@H]4CC[C@]23C)C(=O)O1
inactive: Activity (Bel-7402) | Activity (HCT-8) | Activity (A549) | Activity (A2780) | inhibition [1] | Activity (BGC-823) | inhibition [2]

CC(C)=CCC[C@@](O)(CO[C@@H]1O[C@H](CO)[C@@H](O)[C@H](O)[C@H]1O)[C@H]1CC[C@]2(C)[C@@H]1CC[C@@H]1[C@@]3(C=O)CC[C@H](O[C@@H]4O[C@H](CO)[C@@H](O)[C@H](O[C@@H]5OC[C@@H](O)[C@H](O)[C@H]5O)[C@H]4O[C@@H]4O[C@@H](C)[C@H](O)[C@@H](O)[C@H]4O)C(C)(C)[C@@H]3CC[C@]12C
inactive: Activity (Bel-7402) | Activity (HCT-8) | Activity (A549) | Activity (A2780) | inhibition [1] | Activity (BGC-823) | inhibition [2]

CC(=O)OC[C@H]1O[C@@H](O[C@H]2CC[C@]3(C)[C@H]4CC[C@@H]5[C@@H]([C@](O)(CO)CCC=C(C)C)CC[C@@]5(C)[C@]4(C)CC[C@H]3C2(C)C)[C@H](O[C@@H]2O[C@@H](C)[C@H](O)[C@@H](O)[C@H]2O)[C@@H](O[C@@H]2OC[C@@H](O)[C@H](O)[C@H]2O)[C@@H]1O
inactive: Activity (Bel-7402) | Activity (HCT-8) | Activity (A549) | Activity (A2780) | inhibition [1] | Activity (BGC-823) | inhibition [2]
